From patent US20200179273A1, “LONG-ACTION IMPLANT FOR TREATMENT OF INFECTIOUS DISEASES” (Merck Sharp & Dohme Corp., priority 2017, published 2020)
Values after ≈ are worked out from the molar mass of the structure shown. Read-outs that look alike come from different tables or passages of the source.

Tests used:
[1] = Solubility of anti-tuberculosis compounds in PBS; format: physicochemical; settings: aqueous buffer
[2] = In vivo drug release: drug concentration in blood plasma after subcutaneous implants; parameters: species or system Wistar Han rat; settings: rat, three compressed implants subcutaneous; for concentration at 0.167 days / concentration at 0.25 days / concentration at 1 day / concentration at 2 days / concentration at 9 days / concentration at 16 days / concentration at 30 days / concentration at 44 days / concentration at 0.083 days / concentration at 58 days: Wistar Han, plasma, sc; for concentration at 0.167 days / concentration at 0.25 days / concentration at 1 day / concentration at 2 days / concentration at 9 days / concentration at 16 days / concentration at 30 days / concentration at 44 days: 60 mg/animal; for concentration at 0.083 days / concentration at 58 days: 60 mg
Text: For each implantation, a Wistar Han rat was anesthetized using isoflurane to effect prior to subcutaneous dose administration. Using a trocar needle, three implants from each formulation example above were placed subcutaneously in the intrascapular region of a rat. Three animals were used for each formulation. Animals were monitored until recovered. At indicated time points, samples of blood were obtained from anesthetized animals (using isoflurane) and processed to plasma for determination of drug concentration by LC/MS. Results are shown in the below table (Table 4).

[3] = In vitro drug release from compressed implants; format: physicochemical; settings: compressed implant 80wt % drug, PBS with 0.2 or 5wt % SDS, 37° C., 50 rpm
Description: The in vitro release rate of the drug was determined by incubating individual implants in a glass vial with phosphate buffered saline (PBS) containing 0.2 or 5wt % sodium dodecyl sulfate (SDS) at 37° C., and 50 rpm shaking in an Innova 42 incubator. The volume of media was sufficient to maintain sink conditions. Sink conditions are defined as the drug concentration maintained at or below ⅓ of the maximum solubility. Samples were removed at selected time points, and centrifuged at 20,800×g for 8 min. The supernatant was analyzed by HPLC.

[4] = dissolution media PBS, 37° C., read-out: Solubility at 37° C.
[5] = in phosphate buffered saline (PBS), read-out: aqueous solubility

Compound	solubility [1, 4] [µg/mL]	solubility [1, 5] [µg/mL]	concentration at 0.167 days ([2]; 0.167 days) [nM]	concentration at 0.25 days ([2]; 0.25 days) [nM]	concentration at 1 day ([2]; 1 day) [nM]	concentration at 2 days ([2]; 2 days) [nM]	concentration at 9 days [2] [nM]	concentration at 16 days [2] [nM]	concentration at 30 days [2] [nM]	concentration at 44 days [2] [nM]	concentration at 0.083 days ([2]; 0.083 days) [nM]	concentration at 58 days [2] [nM]	Cumulative in vitro drug release Avg. ([3]; 1 day) [%]	Cumulative in vitro drug release Avg. ([3]; 11 days) [%]	Cumulative in vitro drug release Avg. ([3]; 20 days) [%]	Drug concentration in blood plasma Avg. ([2]; 0.083 days)	Drug concentration in blood plasma Avg. ([2]; 0.167 days)	Drug concentration in blood plasma Avg. ([2]; 0.25 days)	Drug concentration in blood plasma Avg. ([2]; 1 day)	Drug concentration in blood plasma Avg. ([2]; 2 days)
CO[C@H]1/C=C/O[C@@]2(C)Oc3c(C)c(O)c4c(O)c(c(/C=N/N5CCN(C6CCCC6)CC5)c(O)c4c3C2=O)NC(=O)/C(C)=C\C=C\[C@H](C)[C@H](O)[C@@H](C)[C@@H](O)[C@@H](C)[C@H](OC(C)=O)[C@@H]1C [rifapentine]	134 (≈ 153 µM)	< 200	803	1250	3530	5210	5980	2260	1010	1460	630	477								
CO[C@H]1/C=C/O[C@@]2(C)Oc3c(C)c(O)c4c(c3C2=O)C2=NC3(CCN(CC(C)C)CC3)NC2=C(NC(=O)/C(C)=C\C=C\[C@H](C)[C@H](O)[C@@H](C)[C@@H](O)[C@@H](C)[C@H](OC(C)=O)[C@@H]1C)C4=O [rifabutin]	101 (≈ 119 µM)	< 200	164	244	209	182	119	75.9	69.3	42.3	81.9	38.3	40.6	107.7						
C[C@]1(COc2ccc(N3CCC(Oc4ccc(OC(F)(F)F)cc4)CC3)cc2)Cn2cc([N+](=O)[O-])nc2O1 [delamanid]													20.3	26.8	38.3					
COc1nc2ccc(Br)cc2cc1[C@@H](c1ccccc1)[C@@](O)(CCN(C)C)c1cccc2ccccc12 [bedaquiline]	129 (≈ 232 µM)	< 200					81	63.6	51.7	70.3		60.2	10.9	41.4	57.2	BLQ	BLQ	BLQ	BLQ	BLQ
